Assay results as given in US8921267B2, “Safening 6-(trisubstituted phenyl)-4-amino-2-pyridinecarboxylate herbicide injury on cereal crops” (Dow AgroSciences LLC, priority 2008, dated 2014).

Assays:
[1] = system: Russian thistle (Salsola iberica L; SASKR); experiment: Postemergence herbicidal activity, greenhouse, visual injury: Russian thistle; type: in vivo; parameters: key: visual injury, 0–100%: 0 = no injury, 100 = complete kill
Method in brief: (§1)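 Percent visual injury relative to solvent-blank controls, rated 20-22 d after treatment on a 0 (none) to 100 (complete kill) scale. Expected mixture response came from Colby's equation, Expected=A+B−(A×B/100). Sprays contained 1.5% v/v crop oil concentrate at 187 L/ha.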

[2] = system: barley (Hordeum vulgare L; HORVS); experiment: Postemergence herbicidal safening, greenhouse, visual injury: barley; type: in vivo; parameters: key to HORVS Ob (Observed values): % visual injury: 0 = no injury, 100 = complete kill
Method in brief: as §1

[3] = system: kochia (Kochia scoparia L; KCHSC); experiment: Postemergence herbicidal activity, greenhouse, visual injury: kochia; type: in vivo; parameters: key: % visual injury: 0 = no injury, 100 = complete kill
Protocol: (§2) Evaluation of Postemergence Herbicidal Safening in Cereal Crops
(§3) Seeds of the desired test plant species were planted in Sun Gro MetroMix® 306 planting mixture, which typically has a pH of 6.0 to 6.8 and an organic matter content of about 30 percent, in plastic pots with a surface area of 103.2 square centimeters (cm^2). When required to ensure good germination and healthy plants, a fungicide treatment and/or other chemical or physical treatment was applied. The plants were grown for 7-36 days (d) in a greenhouse with an approximate 14-hour (h) photoperiod which was maintained at about 18° C. during the day and 17° C. during the night. Nutrients and water were added on a regular basis and supplemental lighting was provided with overhead metal halide 1000-Watt lamps as necessary. The plants were employed for testing when they reached the second or third true leaf stage.
(§4) Weighed amounts of esters (methyl) or salts (TEA [triethylammonium], K [potassium]) of 4-amino-3-chloro-6-(4-chloro-2-fluoro-3-methoxyphenyl)pyridine-2-carboxylic acid (Compound 1) were dissolved in a volume of 97:3 volume/volume (v/v) acetone/dimethylsulfoxide (DMSO) to obtain stock solutions. […] The concentrated stock solutions were diluted with an aqueous mixture of 1.5% v/v of Agri-dex crop oil concentrate to provide the appropriate application rates. Compound requirements are based upon a 12 mL application volume at a rate of 187 liters per hectare (L/ha). Stocks solutions of the safeners were prepared following the same procedure. Spray solutions of the safeners and experimental compound mixtures were prepared by adding the stock solutions to the appropriate amount of dilution solution to form a 12 mL spray solution with active ingredients in two-way combinations. Formulated compounds were applied to the plant material with an overhead Mandel track sprayer equipped with 8002E nozzles calibrated to deliver 187 L/ha over an application area of 0.503 square meters (m^2) at a spray height of 18 inches (43 centimeters (cm)) above average plant canopy. Control plants were sprayed in the same manner with the solvent blank.
(§5) The treated plants and control plants were placed in a greenhouse as described above and watered by sub-irrigation to prevent wash-off of the test compounds. After 20-22 d, the condition of the test plants as compared with that of the control plants was determined visually and scored on a scale of 0 to 100 percent where 0 corresponds to no injury and 100 corresponds to complete kill.
(§6) Colby's equation was used to determine the herbicidal effects expected from the mixtures (Colby, S. R. Calculation of the synergistic and antagonistic response of herbicide combinations. Weeds 1967, 15, 20-22.).
(§7) The following equation was used to calculate the expected activity of mixtures containing two active ingredients, A and B: Expected=A+B−(A×B/100)
(§8) A=observed efficacy of active ingredient A at the same concentration as used in the mixture.
(§9) B=observed efficacy of active ingredient B at the same concentration as used in the mixture.

[4] = system: cleavers (Galium aparine L; GALAP); experiment: Postemergence herbicidal activity, greenhouse, visual injury: cleavers; type: in vivo; parameters: key: visual injury, 0–100%: 0 = no injury, 100 = complete kill
Method in brief: as §1

[5] = system: wild pansy (Viola tricolor L; VIOTR); experiment: Postemergence herbicidal activity, greenhouse, visual injury: wild pansy; type: in vivo; parameters: key: visual injury, 0–100%: 0 = no injury, 100 = complete kill
Method in brief: as §1

[6] = system: wheat (Triticum aestivum L; TRZAS); experiment: Postemergence herbicidal safening, greenhouse, visual injury: wheat; type: in vivo
Method in brief: as §1

[7] = system: corn poppy (Papaver rhoeas L; PAPRH); experiment: Postemergence herbicidal activity, greenhouse, visual injury: corn poppy; type: in vivo
Method in brief: as §1

[8] = system: bird's-eye speedwell (Veronica persica L; VERPE); experiment: Postemergence herbicidal activity, greenhouse, visual injury: bird's-eye speedwell; type: in vivo; parameters: key: visual injury, 0–100%: 0 = no injury, 100 = complete kill
Method in brief: as §1

[9] = system: scented mayweed (Matricaria chamomila L; MATCH); experiment: Postemergence herbicidal activity, greenhouse, visual injury: scented mayweed; type: in vivo; parameters: key: % visual injury: 0 = no injury, 100 = complete kill
Protocol: as §2, §3, §4, §5, §6, §7, §8, §9

[10] = system: wild buckwheat (Polygonum convolvulus L; POLCO); experiment: Postemergence herbicidal activity, greenhouse, visual injury: wild buckwheat; type: in vivo
Method in brief: as §1

[11] = system: purple deadnettle (Lamium purpureum L; LAMPU); experiment: Postemergence herbicidal activity, greenhouse, visual injury: purple deadnettle; type: in vivo
Method in brief: as §1

[12] = system: barley (HORVW); experiment: Postemergence herbicidal safening, greenhouse, visual injury: barley (HORVW)
[13] = system: durum wheat (Triticum durum L; TRZDU); experiment: Postemergence herbicidal safening, greenhouse, visual injury: durum wheat; type: in vivo
Protocol: as §2, §3, §4, §5, §6, §7, §8, §9

[14] = system: chickweed (Stellaria media L; STEME); experiment: Postemergence herbicidal activity, greenhouse, visual injury: chickweed; type: in vivo; parameters: key: visual injury, 0–100%: 0 = no injury, 100 = complete kill
Method in brief: as §1

[15] = system: wheat (Triticum aestivum L; TRZAW); experiment: Postemergence herbicidal safening, greenhouse, visual injury: wheat (TRZAW); type: in vivo
Protocol: as §2, §3, §4, §5, §6, §7, §8, §9

C=CCN(CC=C)C(=O)C(Cl)Cl [Dichlormid, N,N-diallyl-2,2-dichloroacetamide, reference compound]
SASKR Ob ([1]; applied alone at 17.5 g/ha): 0% | SASKR Ob ([1]; applied alone at 35 g/ha): 0% | SASKR Ob ([1]; applied alone at 70 g/ha): 0% | SASKR Ob ([1]; applied alone at 140 g/ha): 0% | HORVS Ob ([2]; applied alone at 17.5 g/ha): 0% | HORVS Ob ([2]; applied alone at 35 g/ha): 0% | HORVS Ob ([2]; applied alone at 70 g/ha): 0% | HORVS Ob ([2]; applied alone at 140 g/ha): 0% | HORVS Ob (Observed values) ([2]; safener 4.4 g/ha alone): 0 | HORVS Ob (Observed values) ([2]; safener 8.8 g/ha alone): 0 | HORVS Ob (Observed values) ([2]; safener 17.5 g/ha alone): 0 | HORVS Ob (Observed values) ([2]; safener 35 g/ha alone): 0 | KCHSC Ob ([3]; applied alone at 17.5 g/ha): 0% | KCHSC Ob ([3]; applied alone at 35 g/ha): 0% | KCHSC Ob ([3]; applied alone at 70 g/ha): 0% | KCHSC Ob ([3]; applied alone at 140 g/ha): 0% | GALAP Ob ([4]; applied alone at 17.5 g/ha): 0% | GALAP Ob ([4]; applied alone at 35 g/ha): 0% | GALAP Ob ([4]; applied alone at 70 g/ha): 0% | GALAP Ob ([4]; applied alone at 140 g/ha): 0% | VIOTR Ob ([5]; applied alone at 17.5 g/ha): 0% | VIOTR Ob ([5]; applied alone at 35 g/ha): 0% | VIOTR Ob ([5]; applied alone at 70 g/ha): 0% | VIOTR Ob ([5]; applied alone at 140 g/ha): 0% | TRZAS Ob ([6]; applied alone at 17.5 g/ha): 0% | TRZAS Ob ([6]; applied alone at 35 g/ha): 0% | TRZAS Ob ([6]; applied alone at 70 g/ha): 0% | TRZAS Ob ([6]; applied alone at 140 g/ha): 0% | PAPRH Ob ([7]; applied alone at 17.5 g/ha): 0% | PAPRH Ob ([7]; applied alone at 35 g/ha): 0% | PAPRH Ob ([7]; applied alone at 70 g/ha): 0% | PAPRH Ob ([7]; applied alone at 140 g/ha): 0% | PAPRH Ob (Observed values) ([7]; safener 4.4 g/ha alone): 0 | PAPRH Ob (Observed values) ([7]; safener 8.8 g/ha alone): 0 | PAPRH Ob (Observed values) ([7]; safener 17.5 g/ha alone): 0 | PAPRH Ob (Observed values) ([7]; safener 35 g/ha alone): 0 | VERPE Ob ([8]; applied alone at 17.5 g/ha): 0% | VERPE Ob ([8]; applied alone at 35 g/ha): 0% | VERPE Ob ([8]; applied alone at 70 g/ha): 0% | VERPE Ob ([8]; applied alone at 140 g/ha): 0% | MATCH Ob ([9]; applied alone at 17.5 g/ha): 0% | MATCH Ob ([9]; applied alone at 35 g/ha): 0% | MATCH Ob ([9]; applied alone at 70 g/ha): 0% | MATCH Ob ([9]; applied alone at 140 g/ha): 0% | POLCO Ob ([10]; applied alone at 17.5 g/ha): 0% | POLCO Ob ([10]; applied alone at 35 g/ha): 0% | POLCO Ob ([10]; applied alone at 70 g/ha): 0% | POLCO Ob ([10]; applied alone at 140 g/ha): 0% | LAMPU Ob ([11]; applied alone at 17.5 g/ha): 0% | LAMPU Ob ([11]; applied alone at 35 g/ha): 0% | LAMPU Ob ([11]; applied alone at 70 g/ha): 0% | LAMPU Ob ([11]; applied alone at 140 g/ha): 0% | LAMPU Ob (Observed values) ([11]; safener 4.4 g/ha alone): 0 | LAMPU Ob (Observed values) ([11]; safener 8.8 g/ha alone): 0 | LAMPU Ob (Observed values) ([11]; safener 17.5 g/ha alone): 0 | LAMPU Ob (Observed values) ([11]; safener 35 g/ha alone): 0 | HORVW Ob (Observed values) ([12]; safener 4.4 g/ha alone): 0% | HORVW Ob (Observed values) ([12]; safener 8.8 g/ha alone): 0% | HORVW Ob (Observed values) ([12]; safener 17.5 g/ha alone): 0% | HORVW Ob (Observed values) ([12]; safener 35 g/ha alone): 0% | TRZDU Ob (Observed values) ([13]; safener 4.4 g/ha alone): 0% | TRZDU Ob (Observed values) ([13]; safener 8.8 g/ha alone): 0% | TRZDU Ob (Observed values) ([13]; safener 17.5 g/ha alone): 0% | TRZDU Ob (Observed values) ([13]; safener 35 g/ha alone): 0% | STEME Ob ([14]; applied alone at 17.5 g/ha): 0% | STEME Ob ([14]; applied alone at 35 g/ha): 0% | STEME Ob ([14]; applied alone at 70 g/ha): 0% | STEME Ob ([14]; applied alone at 140 g/ha): 0% | TRZAW Ob (Observed values) ([15]; safener 4.4 g/ha alone): 0% | TRZAW Ob (Observed values) ([15]; safener 8.8 g/ha alone): 0% | TRZAW Ob (Observed values) ([15]; safener 17.5 g/ha alone): 0% | TRZAW Ob (Observed values) ([15]; safener 35 g/ha alone): 0%
